# Measurements reported in patent US10583137B2, “Triazole DAGLα inhibitors” (THE SCRIPPS RESEARCH INSTITUTE, priority 2015, dated 2020).
# Key:
# LIPE = LIPE (Mus musculus (Mouse), UniProt P54310); experiment: in vivo ABPP coupled to quantitative mass spectrometry (FP-biotin, ReDiMe); details: brain proteomes of treated mice
# Procedure: (§1) The extent of these target profiles were confirmed by performing ABPP coupled to high-resolution, quantitative mass spectrometry (MS). Briefly, brain proteomes from compound and vehicle-treated mice were incubated with the serine hydrolase directed activity-based probe FP-biotin, and probe-labeled enzymes were enriched by streptavidin chromatography, digested on bead with trypsin, and the resulting tryptic peptides modified by reductive dimethylation (ReDiMe) of lysine residues using isotopically heavy and light formaldehyde, respectively. In these experiments, inhibited serine hydrolases are identified as enzymes showing low heavy/light ReDiMe ratios.
# BCHE = BCHE (Mus musculus (Mouse), UniProt Q03311); experiment: as above; details: brain proteomes of treated mice
# Chain of BCHE (Q03311 30-603 limits assumed): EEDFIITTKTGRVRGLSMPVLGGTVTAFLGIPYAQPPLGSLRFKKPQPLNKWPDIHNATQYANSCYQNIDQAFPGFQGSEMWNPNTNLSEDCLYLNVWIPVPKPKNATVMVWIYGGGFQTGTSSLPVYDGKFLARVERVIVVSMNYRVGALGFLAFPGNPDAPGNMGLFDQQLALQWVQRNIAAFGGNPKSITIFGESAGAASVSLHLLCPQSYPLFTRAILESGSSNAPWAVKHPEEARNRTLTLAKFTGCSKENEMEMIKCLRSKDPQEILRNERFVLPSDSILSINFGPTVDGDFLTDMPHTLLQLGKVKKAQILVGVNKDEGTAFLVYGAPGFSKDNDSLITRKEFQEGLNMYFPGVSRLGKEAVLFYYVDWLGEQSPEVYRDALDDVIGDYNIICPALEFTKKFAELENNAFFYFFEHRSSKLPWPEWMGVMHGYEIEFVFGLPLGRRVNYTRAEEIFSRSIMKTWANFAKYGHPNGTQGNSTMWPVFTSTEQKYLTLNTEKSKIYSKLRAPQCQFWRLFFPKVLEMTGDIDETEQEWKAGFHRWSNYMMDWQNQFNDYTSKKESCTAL
# Procedure: as §1
# DAGL enzymes = experiment: brain proteomes of treated mice conjugated to Cy5 fluorophore by CuAAC; assay type: in vivo, mouse
# PLA2G7 = PLA2G7 (Mus musculus (Mouse), UniProt Q60963); experiment: in vivo ABPP coupled to quantitative mass spectrometry (FP-biotin, ReDiMe); details: brain proteomes of treated mice
# Chain of PLA2G7 (Q60963 22-440): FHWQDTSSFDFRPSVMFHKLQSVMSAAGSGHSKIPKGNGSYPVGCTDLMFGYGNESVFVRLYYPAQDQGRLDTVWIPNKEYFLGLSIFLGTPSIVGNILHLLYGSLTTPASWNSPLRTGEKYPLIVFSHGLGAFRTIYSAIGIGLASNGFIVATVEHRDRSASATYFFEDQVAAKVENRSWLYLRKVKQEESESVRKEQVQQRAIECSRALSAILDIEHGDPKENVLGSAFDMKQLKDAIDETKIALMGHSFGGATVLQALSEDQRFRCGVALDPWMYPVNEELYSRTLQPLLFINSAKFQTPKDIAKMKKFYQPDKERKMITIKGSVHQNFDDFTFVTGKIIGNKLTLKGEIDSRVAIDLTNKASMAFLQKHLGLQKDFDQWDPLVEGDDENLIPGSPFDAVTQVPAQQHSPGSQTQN
# Procedure: as §1
# ABHD2 = ABHD2 (Mus musculus (Mouse), UniProt Q9QXM0); experiment: as above; details: brain proteomes of treated mice
# Chain of ABHD2 (Q9QXM0 whole entry): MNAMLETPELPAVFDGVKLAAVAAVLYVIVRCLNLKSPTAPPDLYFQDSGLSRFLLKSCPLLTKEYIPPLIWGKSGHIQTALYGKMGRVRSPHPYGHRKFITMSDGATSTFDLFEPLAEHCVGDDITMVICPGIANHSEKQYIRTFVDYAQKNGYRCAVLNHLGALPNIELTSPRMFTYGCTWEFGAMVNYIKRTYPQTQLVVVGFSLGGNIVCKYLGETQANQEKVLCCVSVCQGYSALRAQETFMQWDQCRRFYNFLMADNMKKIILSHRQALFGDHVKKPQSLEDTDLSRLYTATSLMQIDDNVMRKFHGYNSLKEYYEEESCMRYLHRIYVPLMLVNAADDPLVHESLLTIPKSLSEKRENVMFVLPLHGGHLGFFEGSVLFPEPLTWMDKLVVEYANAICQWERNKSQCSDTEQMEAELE
# Procedure: as §1
# Chain of LIPE (P54310 whole entry): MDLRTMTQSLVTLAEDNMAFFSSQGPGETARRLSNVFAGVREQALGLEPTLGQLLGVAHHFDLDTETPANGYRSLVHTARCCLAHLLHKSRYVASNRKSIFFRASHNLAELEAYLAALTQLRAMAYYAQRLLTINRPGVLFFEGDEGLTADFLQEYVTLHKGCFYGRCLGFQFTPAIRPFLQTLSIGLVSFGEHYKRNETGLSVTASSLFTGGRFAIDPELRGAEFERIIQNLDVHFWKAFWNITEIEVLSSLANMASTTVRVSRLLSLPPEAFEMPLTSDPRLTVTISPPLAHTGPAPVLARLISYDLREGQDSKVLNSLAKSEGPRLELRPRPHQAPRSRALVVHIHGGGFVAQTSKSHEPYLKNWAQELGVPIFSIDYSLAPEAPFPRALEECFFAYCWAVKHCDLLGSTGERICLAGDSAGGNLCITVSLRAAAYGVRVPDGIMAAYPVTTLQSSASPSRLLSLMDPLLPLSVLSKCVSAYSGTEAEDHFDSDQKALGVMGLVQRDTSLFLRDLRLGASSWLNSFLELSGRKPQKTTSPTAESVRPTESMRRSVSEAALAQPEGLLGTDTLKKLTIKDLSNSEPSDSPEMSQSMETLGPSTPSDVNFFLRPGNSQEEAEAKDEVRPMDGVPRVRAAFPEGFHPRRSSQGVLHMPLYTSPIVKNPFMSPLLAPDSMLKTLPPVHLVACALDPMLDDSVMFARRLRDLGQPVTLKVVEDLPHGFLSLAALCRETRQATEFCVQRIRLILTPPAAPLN
SMILES,"heavy/light ReDiMe ratio, LIPE (off-target) (LIPE)","heavy/light ReDiMe ratio, BCHE (off-target) (BCHE)",labeling of DAGL enzymes in brain proteomes of treated mice (DAGL enzymes),"heavy/light ReDiMe ratio, PLA2G7 (off-target) (PLA2G7)","heavy/light ReDiMe ratio, ABHD2 (off-target) (ABHD2)"
"C#CCO[C@@H]1CC[C@H](Cc2ccccc2)N(C(=O)n2ncc(C(O)(c3ccc(F)cc3)c3ccc(F)cc3)n2)C1 [Compound 14, ((2R,5R)-2-Benzyl-5-(prop-2-ynyloxy)piperidin-1-yl)(4-(bis(4-fluorophenyl)(hydroxy)methyl)-2H-1,2,3-triazol-2-yl)methanone]",< 0.5,< 0.5,"direct, dose-dependent labeling",,
"CC(C)(C)OC(=O)N1CCN(C(=O)n2cc(-c3ccc(OC(F)(F)F)cc3)nn2)C(Cc2ccccc2)C1 (centres unmarked) [Compound 17, tert-Butyl 3-benzyl-4-(4-(4-(trifluoromethoxy)phenyl)-1H-1,2,3-triazole-1-carbonyl)piperazine-1-carboxylate]",,,,< 0.5,< 0.5
